Entries after “also recorded” stand apart in the source; their conditions may differ.
What was measured:
[1] = target: T1, GABAA receptors α5β3γ2 (GABA α5) (Homo sapiens, UniProt P18507+P31644); assay: Binding activity on GABAAR: inhibition of [3H]Ro15-1788 binding, membranes of Ltk cells; conditions: α5β3γ2 Ltk cell membranes
T1 construct: membranes
T1 sequence (P31644 32-462): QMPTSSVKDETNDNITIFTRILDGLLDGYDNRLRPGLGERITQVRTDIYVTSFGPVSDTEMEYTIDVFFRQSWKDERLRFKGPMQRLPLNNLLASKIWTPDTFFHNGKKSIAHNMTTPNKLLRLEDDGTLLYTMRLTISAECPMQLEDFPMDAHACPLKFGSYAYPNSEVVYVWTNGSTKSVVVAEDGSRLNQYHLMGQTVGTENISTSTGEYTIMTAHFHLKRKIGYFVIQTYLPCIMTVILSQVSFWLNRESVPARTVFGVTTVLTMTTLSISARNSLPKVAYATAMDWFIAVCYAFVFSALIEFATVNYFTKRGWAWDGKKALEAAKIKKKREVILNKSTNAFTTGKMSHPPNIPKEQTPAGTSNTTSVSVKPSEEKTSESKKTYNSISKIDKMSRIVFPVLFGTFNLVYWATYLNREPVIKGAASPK
T1 sequence (P28472 26-473 partner): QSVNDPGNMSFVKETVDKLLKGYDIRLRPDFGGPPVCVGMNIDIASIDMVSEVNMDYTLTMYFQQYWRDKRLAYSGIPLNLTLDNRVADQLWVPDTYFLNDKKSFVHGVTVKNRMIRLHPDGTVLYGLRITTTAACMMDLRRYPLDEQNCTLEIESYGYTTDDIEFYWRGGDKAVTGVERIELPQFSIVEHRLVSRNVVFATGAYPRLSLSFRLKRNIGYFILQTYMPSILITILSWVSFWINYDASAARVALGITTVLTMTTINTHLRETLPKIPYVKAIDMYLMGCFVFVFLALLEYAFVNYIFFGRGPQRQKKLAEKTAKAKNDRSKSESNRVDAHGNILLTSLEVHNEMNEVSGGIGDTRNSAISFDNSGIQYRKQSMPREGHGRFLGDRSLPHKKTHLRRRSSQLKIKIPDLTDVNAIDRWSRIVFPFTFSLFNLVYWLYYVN
T1 sequence (P18507 40-467 limits assumed): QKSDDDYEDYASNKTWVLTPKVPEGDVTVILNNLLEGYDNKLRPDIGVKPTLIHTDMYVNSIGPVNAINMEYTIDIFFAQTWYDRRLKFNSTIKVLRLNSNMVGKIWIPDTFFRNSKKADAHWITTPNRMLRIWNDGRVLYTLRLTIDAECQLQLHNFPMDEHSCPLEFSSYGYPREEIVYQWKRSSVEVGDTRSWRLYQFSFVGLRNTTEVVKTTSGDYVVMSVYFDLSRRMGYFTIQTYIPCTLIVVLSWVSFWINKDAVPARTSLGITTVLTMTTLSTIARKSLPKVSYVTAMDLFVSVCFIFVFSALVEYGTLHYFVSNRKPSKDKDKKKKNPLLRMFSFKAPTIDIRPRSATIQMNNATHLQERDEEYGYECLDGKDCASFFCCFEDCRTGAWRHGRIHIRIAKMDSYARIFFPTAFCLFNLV
Method: Tissue culture and Membrane Preparation: The binding was performed on Ltk cells stably expressing GABAA receptors: α1β1γ2, α2β3γ2, α3β3γ2 and α5β3γ2 (provided by Merck Co., NJ, USA). Cells were seeded in 100 mm culture plates in DMEM/F12 medium containing 10% serum and antibiotics in 5% CO2 and allowed to grow for 1-2 days. GABAAR expression was then induced by dexamethasone as follows: 0.5 μM for 1 day for α5 containing and 2 μM for 3 days for α1, α2 and α3 containing GABAARs. After induction, cells were collected by scraping into Dulbecco's Phosphate buffered saline (DPBS, pH 7.4, Invitrogen, Carlsbad, Calif., USA) and centrifuged at 150×g for 10 min. The pellet was washed twice by re-suspension and centrifugation. The cell pellets from at least 5 different preps were combined, suspended in the binding assay buffer (50 mM KH2PO4; 1 mM EDTA; 0.2 M KCl, pH 7.4) and membranes prepared by sonication (3-5 times, 30 sec) using Branson Sonifier 150 (G. Heinmann, Germany). Protein content was determined using BCA assay (Bio-Rad Labs, Reinach, Switzerland) with Bovine Serum Albumin (Sigma Aldrich, St. Louis, Mo., USA) as the standard. Aliquots were prepared and stored at −20° C. for further use in binding assays.
Ligand Binding: Saturation binding curves were obtained by incubating membranes with increasing concentrations (0.01-8 nM) of [^3H]Rol5-1788 (Flumazepil, 75-85 Ci/mmol, PerkinElmer, MA, USA), with nonspecific binding measured in the presence of 10 μM diazepam.
All binding assays were performed for 1 h at 4° C. in assay buffer. The total assay volume was 0.5 ml containing 0.2 mg/ml protein for α5 and 0.4 mg/ml for α1, α2, and α3 containing GABAAR membranes. Incubations were terminated by filtration through GF/B filters using a 24-Cell Harvestor (Brandel, Gaithersburg, Md., USA) followed by 3 washes with ice-cold assay buffer. Filters were transferred to scintillation vials, 5 ml scintillation liquid added, vortex-mixed and kept in dark. Next day, radioactivity was obtained using a scintillation counter (Beckman Coulter, Brea, Calif., USA). All assays were performed in triplicate.
Data Analyses: Saturation and inhibition curves were obtained using GraphPad Prism software (GraphPad Software, Inc., CA, USA).

[2] = target: T2, GABAA α5 receptor (Rattus norvegicus, UniProt P19969); assay: GABAA α5 receptor occupancy with Ro 15-4513 tracer; assay type: in vivo, Long Evans rats; conditions: i.v.
T2 construct: from tissue; host or cells: brain of living Long Evans rats; hippocampus and cerebellum dissected after i.v. dosing
T2 sequence (P19969 32-464 limits assumed): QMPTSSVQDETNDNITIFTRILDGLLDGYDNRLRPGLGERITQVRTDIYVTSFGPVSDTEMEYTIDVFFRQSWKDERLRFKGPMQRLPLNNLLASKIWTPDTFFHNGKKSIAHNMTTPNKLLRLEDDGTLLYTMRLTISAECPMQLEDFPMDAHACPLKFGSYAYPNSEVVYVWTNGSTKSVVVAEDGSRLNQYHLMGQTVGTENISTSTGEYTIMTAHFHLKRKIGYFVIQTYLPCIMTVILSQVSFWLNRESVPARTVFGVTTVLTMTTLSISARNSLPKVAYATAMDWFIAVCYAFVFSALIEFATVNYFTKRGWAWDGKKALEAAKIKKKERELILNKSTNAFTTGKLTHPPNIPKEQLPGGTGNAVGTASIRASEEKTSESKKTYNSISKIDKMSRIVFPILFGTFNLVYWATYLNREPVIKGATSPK
Excerpt: Food and water were available ad libitum.

[3] = tested on: aged-impaired (AI) rats; assay: Radial Arm Maze (RAM) behavioral task, four-hour delay; assay type: in vivo, rat
Method: The same experiment was repeated using the same vehicle control and doses of ethyl 3-methoxy-7-methyl-9H-benzo[f]imidazo[1,5-a][1,2,4]triazolo[4,3-d][1,4]diazepine-10-carboxylate, where the vehicle control was tested 5 times, the 3 mg/kg dose of ethyl 3-methoxy-7-methyl-9H-benzo[f]imidazo[1,5-a][1,2,4]triazolo[4,3-d][1,4]diazepine-10-carboxylate was tested 4 times, and the other doses of ethyl 3-methoxy-7-methyl-9H-benzo[f]imidazo[1,5-a][1,2,4]triazolo[4,3-d][1,4]diazepine-10-carboxylate were tested twice.
Parametric statistics (paired t-tests) was used to compare the retention test performance of the AI rats in the four-hour delay version of the RAM task in the context of different doses of ethyl 3-methoxy-7-methyl-9H-benzo[f]imidazo[1,5-a][1,2,4]triazolo[4,3-d][1,4]diazepine-10-carboxylate and vehicle control (see FIG. 5).

[4] = tested on: aged-impaired (AI) rats; assay: Morris water maze behavioral task; assay type: in vivo, rat; conditions: 100 μg ICV
Method: The effects of 6,6 dimethyl-3-(3-hydroxypropyl)thio-1-(thiazol-2-yl)-6,7-dihydro-2-benzothiophen-4(5H)-one on the in vivo spatial memory retention of aged-impaired (AI) rats were assessed in a Morris water maze behavioral task. A water maze is a pool surrounded with a novel set of patterns relative to the maze.
Cognitively impaired aged rats were implanted unilaterally with a cannula into the lateral ventricle. Stereotaxic coordinates were 1.0 mm posterior to bregma, 1.5 mm lateral to midline, and 3.5 mm ventral to the skull surface. After about a week of recovery, the rats were pre-trained in a water maze for 2 days (6 trials per day) to locate a submerged escape platform hidden underneath the surface of the pool, in which the escape platform location varied from day to day. No intracerebroventricular (ICV) infusion was given during pre-training.
After pre-training, rats received ICV infusion of either 100 μg 6,6 dimethyl-3-(3-hydroxypropyl)thio-1-(thiazol-2-yl)-6,7-dihydro-2-benzothiophen-4(5H)-one (n=6) in 5 μl DMSO or vehicle DMSO (n=5) 40 min prior to water maze training and testing. Training consisted of 8 trials per day for 2 days where the hidden escape platform remained in the same location. Rats were given 60 seconds to locate the platform with a 60 seconds inter-trial interval. The rats were given a probe test (120 seconds) 24 hr. after the end of training where the escape platform was removed. During the training, there were 4 blocks, where each block had 4 training trials.
During a test trial 24 hr. after training, the escape platform was removed. The search/swim pattern of the rats was used to measure whether the rats remember where the escape platform was located during pre-trial training in order to test for the long-term memory of the rats. In this trial, “target annulus” is a designated area 1.5 times the size of the escape platform around the area where the platform was located during pre-trial training. “Opposite annulus” is a control area of the same size as the size of the target annulus, which is located opposite to the target annulus in the pool. If the rats had good long term memory, they would tend to search in the area surrounding the location where the platform was during the pre-trial training (i.e., the “target” annulus; and not the “opposite” annulus). “Time in annulus” is the amount of time in seconds that the rat spent in the target or opposite annulus area. “Number (#) of crossings” in annulus is the number of times the rat swam across the target or opposite annulus area.

[5] = probe test 24 hr. after training

## COCc1nnc2n1Cc1c(C#Cc3cn(C)nc3OC)ncn1-c1ccc(Cl)cc1-2 [Compound 737]
[1]
  Ki: < 100 nM

## COCc1nnc2n1Cc1c(C#Cc3cn(C)nc3OC)ncn1-c1ccc(OC)cc1-2 [Compound 736]
[1]
  Ki: < 100 nM

## COc1ccc2c(c1)-n1nncc1Cc1c(C#Cc3cnc(OC)c(F)c3)ncn1-2 [Compound 732]
[1]
  Ki: 100 to 1000 nM

## COCc1nnn2c1Cc1c(C#Cc3cnc(C)n3C)ncn1-c1ccc(Cl)cc1-2 [Compound 740]
[1]
  Ki: < 100 nM

## COc1ccc2c(c1)-n1nncc1Cc1c(C#Cc3cn(C)nc3OC)ncn1-2 [Compound 735]
[1]
  Ki: < 100 nM

## COCc1nnc2n1Cc1c(C#Cc3cnc(OC)c(C(F)(F)F)c3)ncn1-c1ccc(OC)cc1-2 [Compound 731]
[1]
  Ki: 100 to 1000 nM

## CCOC(=O)c1ncn2c1CN(C)C(=O)c1cc(N=[N+]=[N-])ccc1-2 [Ro 15-4513]
[2]; tracer 1 μg/kg, after vehicle
  levels of Ro 15-4513 in cerebellum: 0.36 ± 0.02 ng/g
  levels of Ro 15-4513 in hippocampus: 1.93 ± 0.05 ng/g
  levels of Ro 15-4513 in hippocampus compared with cerebellum: > 5 fold

## COc1ncc(C#Cc2ncn3c2Cc2cnnn2-c2cc(Cl)ccc2-3)cc1F [Compound 734]
[1]
  Ki: < 100 nM

## CCOC(=O)c1ncn2c1Cn1c(C)nnc1-c1cc(OC)ccc1-2 [ethyl 3-methoxy-7-methyl-9H-benzo[f]imidazo[1,5-a][1,2,4]triazolo[4,3-d][1,4]diazepine-10-carboxylate]
[2]; 0.01-10 mg/kg
  effect on Ro 15-4513 binding in hippocampus and cerebellum: reduced Ro 15-4513 binding in hippocampus, without affecting cerebellum levels of Ro 15-4513; also recorded: blocked the binding of Rol54513 in the hippocampus but did not affect binding of Rol5413 in the cerebellum
[2]; 10 mg/kg
  GABAA α5 receptor occupancy: > 90%
[3]; 3 mg/kg
  memory performance relative to vehicle control: significantly improved memory performance
[3]; 10 mg/kg
  memory performance relative to vehicle control: significantly improved memory performance

## COCc1nnn2c1Cc1c(C#Cc3cn(C)nc3OC)ncn1-c1ccc(Cl)cc1-2 [Compound 738]
[1]
  Ki: < 100 nM

## CC1(C)CC(=O)c2c(SCCCO)sc(-c3nccs3)c2C1 [6,6 dimethyl-3-(3-hydroxypropyl)thio-1-(thiazol-2-yl)-6,7-dihydro-2-benzothiophen-4(5H)-one]
[4]; [5]
  number of crossings of target annulus versus opposite annulus: crossed the “target annulus” more often
  time in target annulus versus opposite annulus: spent significantly more time in the target annulus
[4]; training block 1
  time to find the escape platform (escape latency): about 24 seconds
[4]; training block 4
  time to find the escape platform (escape latency): about 9.6 seconds

— patent US20230098667A1, “BENZODIAZEPINE DERIVATIVES, COMPOSITIONS, AND METHODS FOR TREATING COGNITIVE IMPAIRMENT” (priority 2019, published 2023)
